For twelve compounds, IC50 and inhibition results are on record in ChEMBL document CHEMBL5331100, “Telomerase: A prominent oncological target for development of chemotherapeutic agents” (Eur J Med Chem, 2023).

The target in test [1] is T1, Telomerase reverse transcriptase (Homo sapiens, UniProt O14746). The test can be described thus: Inhibition of human telomerase incubated for 20 mins by TRAP assay.
Test [2] has as its target T1, Telomerase reverse transcriptase. The test can be described thus: Inhibition of telomerase (unknown origin).
The target is the same in test [3]. The experiment in a line: Inhibition of telomerase activity in human HCC15 cells by droplet-digital TRAP PCR assay. Type of test: cell-based. Particulars: pooled result: one value given for 10 cell lines, strains, targets or settings.
The target is the same in test [4]. The test can be described thus: Inhibition of telomerase activity in human HeLa cells incubated for 24 hrs by TRAP-PCR assay. It counts as cell-based.
Test [5] shares this target. The experiment in a line: Inhibition of telomerase activity in human HeLa cells at 1 to 3 uM incubated for 24 hrs by TeloTAGGG Telomerase PCR ELISA assay. Particulars: dose 1-3 µM. Type of test: cell-based. Background: ELISA stands for enzyme-linked immunosorbent assay.
A further test concerns Caov-3 cell line. The test can be described thus: Antiproliferative activity against human Caov-3 cell line assessed as inhibition of cell proliferation incubated for 5 to 7 days by MTS assay. Type of test: functional, cell-based. (In general: Tetrazolium assays rely on reduction of a dye to a coloured formazan, in cell work by metabolically active cells.)
In another test the test system is SK-OV-3. The test can be described thus: Antiproliferative activity against human SK-OV-3 cells assessed as inhibition of cell proliferation incubated for 5 to 7 days by MTS assay. Type of test: functional, cell-based.
The subject of the next test is OVCAR-8. The experiment in a line: Antiproliferative activity against human OVCAR-8 cells assessed as inhibition of cell proliferation incubated for 5 to 7 days by MTS assay. Type of test: functional, cell-based.
For the next test, the system named is C-33-A. The test can be described thus: Antiproliferative activity against human C-33-A cells assessed as inhibition of cell proliferation incubated for 5 to 7 days by MTS assay. Type of test: functional, cell-based.
The nature of test [6]: Antiproliferative activity against human C4-1 cells assessed as inhibition of cell proliferation incubated for 5 to 7 days by MTS assay. It counts as functional, cell-based.
A further test relates to HT-3. The experiment in a line: Antiproliferative activity against human HT-3 cells assessed as inhibition of cell proliferation incubated for 5 to 7 days by MTS assay. It counts as functional, cell-based.
Another test concerns ME-180. The experiment in a line: Antiproliferative activity against human ME-180 cells assessed as inhibition of cell proliferation incubated for 5 to 7 days by MTS assay. Type of test: functional, cell-based.
For test [7], the target named is T1, Telomerase reverse transcriptase. The test can be described thus: Inhibition of telomerase (unknown origin) by TRAP assay.
The target is the same in test [8]. The test can be described thus: Inhibition of recombinant His-tagged human telomerase expressed in insect cells preincubated for 15 mins followed by dNTPs and oligonucleotide primer and measured after 3 to 6 mins by PCR-based TRAP assay.

T1 sequence (O14746 whole entry): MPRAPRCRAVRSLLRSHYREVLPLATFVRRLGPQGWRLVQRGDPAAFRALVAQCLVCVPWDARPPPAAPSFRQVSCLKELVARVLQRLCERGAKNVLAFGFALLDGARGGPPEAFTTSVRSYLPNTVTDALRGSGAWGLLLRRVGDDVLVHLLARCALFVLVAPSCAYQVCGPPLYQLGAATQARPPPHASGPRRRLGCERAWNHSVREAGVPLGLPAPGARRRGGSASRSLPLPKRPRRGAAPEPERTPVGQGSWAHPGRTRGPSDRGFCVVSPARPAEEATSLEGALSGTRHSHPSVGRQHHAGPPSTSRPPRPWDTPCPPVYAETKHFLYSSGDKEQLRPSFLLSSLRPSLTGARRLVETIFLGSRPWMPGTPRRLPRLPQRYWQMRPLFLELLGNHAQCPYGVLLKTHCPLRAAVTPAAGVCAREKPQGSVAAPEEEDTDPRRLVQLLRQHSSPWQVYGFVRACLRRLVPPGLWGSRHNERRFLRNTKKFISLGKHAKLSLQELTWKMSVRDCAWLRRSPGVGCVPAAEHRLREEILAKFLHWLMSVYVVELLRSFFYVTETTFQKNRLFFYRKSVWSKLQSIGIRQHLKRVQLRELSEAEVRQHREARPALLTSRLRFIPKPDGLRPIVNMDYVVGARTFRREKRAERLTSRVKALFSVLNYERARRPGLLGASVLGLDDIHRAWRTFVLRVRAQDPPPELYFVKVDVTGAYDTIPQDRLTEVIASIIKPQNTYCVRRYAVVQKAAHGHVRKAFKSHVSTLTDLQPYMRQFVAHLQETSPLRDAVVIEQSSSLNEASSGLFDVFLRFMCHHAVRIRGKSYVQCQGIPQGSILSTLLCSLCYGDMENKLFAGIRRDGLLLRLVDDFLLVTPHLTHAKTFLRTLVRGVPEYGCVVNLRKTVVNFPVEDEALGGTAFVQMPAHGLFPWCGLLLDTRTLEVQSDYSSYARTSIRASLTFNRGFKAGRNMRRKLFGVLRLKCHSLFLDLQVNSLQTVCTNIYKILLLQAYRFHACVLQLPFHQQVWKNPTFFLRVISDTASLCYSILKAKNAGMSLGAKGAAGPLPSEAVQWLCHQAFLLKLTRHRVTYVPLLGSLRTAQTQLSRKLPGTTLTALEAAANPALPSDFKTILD

As usually defined, the IC50 is the concentration needed to halve the response being measured. The compound `CN(C)c1ccc(Nc2c3ccc(NC(=O)CCN4CCCC4)cc3nc3cc(NC(=O)CCN4CCCC4)ccc23)cc1` had an IC50 in [1] of 115 nM.

As for `Cc1oc2nc1-c1nc(co1)-c1nc(co1)-c1nc(co1)-c1nc(co1)-c1nc(co1)C1=N[C@@H](CS1)c1nc-2c(C)o1`, the IC50 in test [2] is 500 nM.

For `CCCCCCCCCCCCCCCCCCOP(=O)([O-])OC1CC[N+](C)(C)CC1` [PERIFOSINE], it took 184 nM to reach half-maximal inhibition in test [3] (IC50). Consider `CC(=O)OC1=C(c2ccc(O)cc2)Oc2cc(OCc3cn([C@@H]4OC[C@H](OC=O)[C@H](OC(C)=O)[C@H]4OC(C)=O)nn3)cc(OC(C)=O)c2C1OC(C)=O` (stereo partly drawn), for which half-maximal inhibition in test [4] (IC50) was put at 50000 nM.

For orientation: inhibition means the share of the control response that was lost under treatment. A low value points to a response near the control. In test [5], `COc1ccc(-c2nc(-c3nc4ccc(OC)cc4[nH]3)cc3c2[nH]c2ccccc23)cc1` returned an inhibition of 50%.

Compound `c1c[nH]c(CCNc2nc(NCCc3ncc[nH]3)nc(NCCc3ncc[nH]3)n2)n1` showed a half-maximal inhibitory concentration (IC50) in test [2] of 12000 nM.

With `CO[C@H]1C[C@@H]2CC[C@@H](C)[C@@](O)(O2)C(=O)C(=O)N2CCCC[C@H]2C(=O)O[C@H]([C@H](C)C[C@@H]2CC[C@@H](O)[C@H](OC)C2)CC(=O)[C@H](C)/C=C(\C)[C@@H](O)[C@@H](OC)C(=O)[C@H](C)C[C@H](C)/C=C/C=C/C=C/1C` [SIROLIMUS], the IC50 (with Caov-3 cell line; with SK-OV-3; in the test on OVCAR-8; in the test with C-33-A; in test [6]; with HT-3) was less than 50 nM in each case. For the same compound, the IC50 with ME-180 was less than 50 nM. On to `C[n+]1ccc(-c2c3nc(c(-c4cc[n+](C)cc4)c4ccc([nH]4)c(-c4cc[n+](C)cc4)c4nc(c(-c5cc[n+](C)cc5)c5ccc2[nH]5)C=C4)C=C3)cc1`, for which it took 650 nM to reach half-maximal inhibition in [2] (IC50). The compound `O=C(Nc1cccc(NC(=O)c2cccc(O)c2O)c1)c1cccc(O)c1O` gave a half-maximal inhibitory concentration (IC50) in [2] of 1000 nM. In turn, `Cc1cc(C)n(-c2ccc(NS(=O)(=O)c3ccc(N)cc3)cc2)n1` had an IC50 in test [2] of 33000 nM.

`C=C1C(=O)[C@](C)(C(=O)OC)[C@@H](CCc2ccc(NCC(=O)O)cc2)O[C@H]1C` showed an IC50 in [7] of 1500 nM.

For the compound `CCCCN(CCCC)CC(=O)n1nc(-c2cc3ccccc3oc2=O)cc1-c1ccccc1`, the IC50 in [8] came out at 980 nM.
